{"source": "patent US20220073941A1", "about": "“HERBICIDE-RESISTANT CAMELINA SATIVA PLANTS, AND VARIANT CAMELINA ACETOHYDROXYACID SYNTHASE POLYPEPTIDES” (priority 2019, published 2022)", "key": {"[1]": {"system": "resistant lines 12CS0365, 12CS0366, 13CS0786", "assay": "Phenotype scoring (resistant/susceptible) 7 d after 2.5 g ai/ha thifensulfuron-methyl (Example 5)", "assay_type": "in vivo, Camelina sativa", "source_text": "(§1) At a thifensulfuron-methyl application rate of 2.5 g ai/ha, plants from parental, F2, BC1F1, and BC4F2 populations could easily be scored into one of two discrete phenotypic classes (R, resistant or S, susceptible) 7 d after herbicide application."}, "[2]": {"system": "susceptible controls SRS 934, 10CS0048", "assay": "Phenotype scoring (resistant/susceptible) 7 d after 2.5 g ai/ha thifensulfuron-methyl (Example 5)", "assay_type": "in vivo, Camelina sativa", "conditions": "7 d after application", "source_text": "as §1"}, "12CS0365": {"system": "12CS0365", "assay": "Greenhouse dose-response to thifensulfuron-methyl, plant height and dry biomass (Example 6)", "assay_type": "in vivo, Camelina sativa"}, "12CS0366": {"system": "12CS0366", "assay": "Greenhouse dose-response to thifensulfuron-methyl, plant height and dry biomass (Example 6)", "assay_type": "in vivo, Camelina sativa"}, "[3]": {"system": "AHAS, enzyme extract of 14CS0851-01-14", "assay": "AHAS product feedback inhibition assay (leucine, isoleucine, valine)", "assay_type": "biochemical, Camelina sativa", "conditions": "for Absorbance at 530 nm (AHAS product feedback inhibition assay, raw data), Avg: average of replicates per experiment; for Absorbance at 530 nm (AHAS product feedback inhibition assay, raw data): individual replicates, experiments 1-3", "protocol": "(§2) Briefly, for each of the three comparators, leaf and stem (petiole) material was bulk-harvested at the 3-4 leaf stage from at least 30 plantlets, snap-frozen in liquid nitrogen, and stored at −80° C. The AHAS in vitro assay was conducted according to the method of Singh et al (1988), with modifications by Yu (2010) and Rustgi (2014). For each comparator, 4 grams of frozen material were ground to a fine powder with a mortar and pestle in liquid nitrogen and homogenized in 1 volume of cold extraction buffer containing 100 mM potassium phosphate buffer (pH7.5), 10 mM sodium pyruvate, 5 mM MgCl2, 100 μM flavin adenine dinucleotide (FAD), and 10% glycerol. Four 2-mL microcentrifuge tubes were used for each comparator. The homogenate was centrifuged at 13,000 rpm for 10 min at 4° C., supernatant collected and re-centrifuged for an additional 10 minutes under the same conditions. For each tube, 1 mL of supernatant was pipetted into a new 2-mL microcentrifuge tube, and protein was precipitated by the addition of 1 mL of saturated ammonium sulfate. The solution was mixed well by vortex and allowed to stand on ice for 20 minutes, then centrifuged at 13,000 rpm at 4° C. The protein pellet was resuspended in 300 μL of reaction buffer containing 50 mM potassium phosphate buffer (pH7.5), 100 mM sodium pyruvate, 10 mM MgCl2, 1 mM EDTA, 10 μM FAD, 100 mM NaCl, and 1 mM thiamine pyrophosphate. Tubes of each comparator were combined, mixed well, kept on ice and immediately used in the AHAS activity and feedback inhibition assays.\n(§3) Total protein concentration of the crude extract was determined by the Bradford method (Bradford, 1976). All assays were conducted using 300 μg of total protein each.\n(§4) The feedback inhibition assay was performed by combining equal amounts of extract and amino acids leucine, isoleucine, or valine, respectively, in concentrations of 0.1 mM, 1 mM, 10 mM and 100 mM, according to Yu et al. (2010). The reaction mixture contained 50 μL enzyme extract and 50 μL 100 mM sodium pyruvate and inhibitor amino acid. The reaction was incubated at 37° C. for 60 minutes, then stopped and acetolactate converted to acetoin with the addition of 20 μL of 6 N H2SO4 and incubated at 60° C. for 15 minutes. A separate background “blank” was included for each sample group by adding 20 μL of 6 N H2SO4 prior to the addition of the enzyme extracts. Then, 95 μL of 0.55% w/v creatine solution and 95 μL of α-naphthol solution (5.5% w/v in 5 N NaOH) were added and the mixture incubated at 60° C. for a further 15 minutes. After cooling to room temperature for 15 minutes, enzyme activity was determined colorimetrically by reading the absorbance at 530 nm. Three independent experiments were conducted. Experiment 1 and 2 each contained 2 technical replicates, while experiment 3 included 3 technical replicates."}, "[4]": {"system": "AHAS, enzyme extract of MIDAS™", "assay": "AHAS product feedback inhibition assay (leucine, isoleucine, valine)", "assay_type": "biochemical, Camelina sativa", "conditions": "for Absorbance at 530 nm (AHAS product feedback inhibition assay, raw data), Avg: average of replicates per experiment; for Absorbance at 530 nm (AHAS product feedback inhibition assay, raw data): individual replicates, experiments 1-3", "protocol": "as §2, §3, §4"}, "[5]": {"system": "AHAS, enzyme extract of SRS 934", "assay": "AHAS product feedback inhibition assay (leucine, isoleucine, valine)", "assay_type": "biochemical, Camelina sativa", "conditions": "for Absorbance at 530 nm (AHAS product feedback inhibition assay, raw data), Avg: average of replicates per experiment; for Absorbance at 530 nm (AHAS product feedback inhibition assay, raw data): individual replicates, experiments 1-3", "protocol": "as §2, §3, §4"}, "[6]": {"conditions": "1 mM amino acid final concentration"}, "[7]": {"conditions": "10 mM amino acid final concentration"}, "[8]": {"conditions": "100 mM amino acid final concentration"}}, "note": "Values joined by “and” are separate entries in the source; they are usually repeats but may differ in a detail not shown here. Identical values can stand only once.", "data": [{"smiles": "COC(=O)c1sccc1S(=O)(=O)NC(=O)Nc1nc(C)nc(OC)n1", "note": "[thifensulfuron-methyl]", "values": [{"measurement": "phenotype after herbicide application", "setting": "[1]", "result": "consistently produced a resistant phenotype"}, {"measurement": "phenotype after herbicide application", "setting": "[2]", "result": "either killed or greatly damaged"}, {"measurement": "Ratio of ED50 biomass values, estimate", "setting": "12CS0365; 12CS0365/12CS0366", "result": 0.08}, {"measurement": "Ratio of ED50 height values, estimate", "setting": "12CS0365; 12CS0365/12CS0366", "result": 0.35}, {"measurement": "Ratio of ED50 biomass values, estimate", "setting": "12CS0365; 12CS0365/13CS0786", "result": 0.008}, {"measurement": "Ratio of ED50 height values, estimate", "setting": "12CS0365; 12CS0365/13CS0786", "result": 0.02}, {"measurement": "Ratio of ED50 biomass values, estimate", "setting": "12CS0365; 12CS0365/SRS 934", "result": 7.93}, {"measurement": "Ratio of ED50 height values, estimate", "setting": "12CS0365; 12CS0365/SRS 934", "result": 12.72}, {"measurement": "Ratio of ED50 biomass values, estimate", "setting": "12CS0366; 12CS0366/13CS0786", "result": 0.0968}, {"measurement": "Ratio of ED50 height values, estimate", "setting": "12CS0366; 12CS0366/13CS0786", "result": 0.20}, {"measurement": "Ratio of ED50 biomass values, estimate", "setting": "12CS0366; 12CS0366/SRS 934", "result": 99.70}, {"measurement": "Ratio of ED50 height values, estimate", "setting": "12CS0366; 12CS0366/SRS 934", "result": 36.9}]}, {"smiles": "CC(C)[C@H](N)C(=O)O", "note": "[valine]", "values": [{"measurement": "Absorbance at 530 nm (AHAS product feedback inhibition assay, raw data), Avg", "setting": "[3]; [6]", "result": "0.213 and 0.207 and 0.080"}, {"measurement": "Absorbance at 530 nm (AHAS product feedback inhibition assay, raw data)", "setting": "[3]; [6]", "result": "0.216 and 0.21 and 0.227 and 0.187 and 0.079 and 0.080 and 0.082"}, {"measurement": "Absorbance at 530 nm (AHAS product feedback inhibition assay, raw data), Avg", "setting": "[3]; [7]", "result": "0.196 and 0.178 and 0.073"}, {"measurement": "Absorbance at 530 nm (AHAS product feedback inhibition assay, raw data)", "setting": "[3]; [7]", "result": "0.203 and 0.189 and 0.190 and 0.166 and 0.057 and 0.84 and 0.80"}, {"measurement": "Absorbance at 530 nm (AHAS product feedback inhibition assay, raw data), Avg", "setting": "[3]; [8]", "result": "0.1485 and 0.155 and 0.057"}, {"measurement": "Absorbance at 530 nm (AHAS product feedback inhibition assay, raw data)", "setting": "[3]; [8]", "result": "0.155 and 0.142 and 0.176 and 0.133 and 0.054 and 0.061 and 0.056"}, {"measurement": "sensitivity of AHAS to feedback inhibition, comparison of enzyme extracts", "setting": "[3]; extracts of 14CS0851-01-14, SRS 934 and MIDAS™ compared, 1 mM, 10 mM, 100 mM", "result": "no significant difference"}, {"measurement": "Absorbance at 530 nm (AHAS product feedback inhibition assay, raw data), Avg", "setting": "[4]; [6]", "result": "0.2475 and 0.203 and 0.117"}, {"measurement": "Absorbance at 530 nm (AHAS product feedback inhibition assay, raw data)", "setting": "[4]; [6]", "result": "0.252 and 0.243 and 0.239 and 0.166 and 0.115 and 0.116 and 0.122"}, {"measurement": "Absorbance at 530 nm (AHAS product feedback inhibition assay, raw data), Avg", "setting": "[4]; [7]", "result": "0.214 and 0.191 and 0.112"}, {"measurement": "Absorbance at 530 nm (AHAS product feedback inhibition assay, raw data)", "setting": "[4]; [7]", "result": "0.205 and 0.223 and 0.217 and 0.113 and 0.110 and 0.112"}, {"measurement": "Absorbance at 530 nm (AHAS product feedback inhibition assay, raw data), Avg", "setting": "[4]; [8]", "result": "0.1815 and 0.166 and 0.089"}, {"measurement": "Absorbance at 530 nm (AHAS product feedback inhibition assay, raw data)", "setting": "[4]; [8]", "result": "0.174 and 0.189 and 0.171 and 0.161 and 0.084 and 0.091 and 0.092"}, {"measurement": "Absorbance at 530 nm (AHAS product feedback inhibition assay, raw data), Avg", "setting": "[5]; [6]", "result": "0.231 and 0.181 and 0.094"}, {"measurement": "Absorbance at 530 nm (AHAS product feedback inhibition assay, raw data)", "setting": "[5]; [6]", "result": "0.236 and 0.226 and 0.198 and 0.163 and 0.086 and 0.098 and 0.100"}, {"measurement": "Absorbance at 530 nm (AHAS product feedback inhibition assay, raw data), Avg", "setting": "[5]; [7]", "result": "0.184 and 0.179 and 0.093"}, {"measurement": "Absorbance at 530 nm (AHAS product feedback inhibition assay, raw data)", "setting": "[5]; [7]", "result": "0.186 and 0.182 and 0.206 and 0.151 and 0.091 (2×) and 0.096"}, {"measurement": "Absorbance at 530 nm (AHAS product feedback inhibition assay, raw data), Avg", "setting": "[5]; [8]", "result": "0.1625 and 0.142 and 0.070"}, {"measurement": "Absorbance at 530 nm (AHAS product feedback inhibition assay, raw data)", "setting": "[5]; [8]", "result": "0.168 and 0.157 and 0.184 and 0.100 and 0.071 and 0.072 and 0.067"}]}]}
